“And” between values parts separate entries of the source, which are not always exact repeats. Identical values can stand only once.

Series [1] addresses T1, plasma membrane H^+-ATPase hexamer, aggregated (large MAS, Peak 1) (Kluyveromyces lactis, UniProt P49380).
T1 construct: gene PMA1; Superose 6 Peak 1, aggregated hexamers; monomer ~100 kDa; no tag
T1 sequence (P49380 1-899): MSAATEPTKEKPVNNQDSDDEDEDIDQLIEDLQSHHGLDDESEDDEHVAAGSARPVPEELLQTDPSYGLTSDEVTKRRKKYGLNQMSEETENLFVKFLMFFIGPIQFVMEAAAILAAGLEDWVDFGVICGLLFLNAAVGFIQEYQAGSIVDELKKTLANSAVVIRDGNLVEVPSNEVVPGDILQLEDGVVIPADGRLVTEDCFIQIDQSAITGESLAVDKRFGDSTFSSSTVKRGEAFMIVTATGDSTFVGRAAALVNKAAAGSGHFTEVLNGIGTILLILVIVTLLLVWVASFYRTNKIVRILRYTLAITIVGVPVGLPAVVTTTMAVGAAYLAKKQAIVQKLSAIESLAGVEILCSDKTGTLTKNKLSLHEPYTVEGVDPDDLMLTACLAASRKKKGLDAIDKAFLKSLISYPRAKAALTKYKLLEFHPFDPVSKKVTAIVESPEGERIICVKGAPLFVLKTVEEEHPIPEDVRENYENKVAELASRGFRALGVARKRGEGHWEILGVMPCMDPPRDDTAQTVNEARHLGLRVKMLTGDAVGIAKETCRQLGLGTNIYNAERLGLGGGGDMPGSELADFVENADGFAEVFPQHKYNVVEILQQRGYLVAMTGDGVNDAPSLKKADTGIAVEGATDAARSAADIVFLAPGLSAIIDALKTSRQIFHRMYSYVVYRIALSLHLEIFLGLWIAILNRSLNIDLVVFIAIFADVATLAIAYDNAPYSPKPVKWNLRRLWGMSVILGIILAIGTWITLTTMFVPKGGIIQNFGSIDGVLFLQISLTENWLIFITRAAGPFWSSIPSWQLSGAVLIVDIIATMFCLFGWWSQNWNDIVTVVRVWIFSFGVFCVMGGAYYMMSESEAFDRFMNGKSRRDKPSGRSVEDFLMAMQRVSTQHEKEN
Put plainly: intrinsic Trp fluorescence quenching titration, Hill-type fit. The series is classed as binding.

Series [2] concerns the target T2, plasma membrane H^+-ATPase hexamer, free (small MAS, Peak 2) (Kluyveromyces lactis, UniProt P49380).
T2 construct: gene PMA1; Superose 6 Peak 2, mainly free hexamers with minor monomer, dimer, tetramer; monomer ~100 kDa; no tag
T2 sequence (P49380 1-899): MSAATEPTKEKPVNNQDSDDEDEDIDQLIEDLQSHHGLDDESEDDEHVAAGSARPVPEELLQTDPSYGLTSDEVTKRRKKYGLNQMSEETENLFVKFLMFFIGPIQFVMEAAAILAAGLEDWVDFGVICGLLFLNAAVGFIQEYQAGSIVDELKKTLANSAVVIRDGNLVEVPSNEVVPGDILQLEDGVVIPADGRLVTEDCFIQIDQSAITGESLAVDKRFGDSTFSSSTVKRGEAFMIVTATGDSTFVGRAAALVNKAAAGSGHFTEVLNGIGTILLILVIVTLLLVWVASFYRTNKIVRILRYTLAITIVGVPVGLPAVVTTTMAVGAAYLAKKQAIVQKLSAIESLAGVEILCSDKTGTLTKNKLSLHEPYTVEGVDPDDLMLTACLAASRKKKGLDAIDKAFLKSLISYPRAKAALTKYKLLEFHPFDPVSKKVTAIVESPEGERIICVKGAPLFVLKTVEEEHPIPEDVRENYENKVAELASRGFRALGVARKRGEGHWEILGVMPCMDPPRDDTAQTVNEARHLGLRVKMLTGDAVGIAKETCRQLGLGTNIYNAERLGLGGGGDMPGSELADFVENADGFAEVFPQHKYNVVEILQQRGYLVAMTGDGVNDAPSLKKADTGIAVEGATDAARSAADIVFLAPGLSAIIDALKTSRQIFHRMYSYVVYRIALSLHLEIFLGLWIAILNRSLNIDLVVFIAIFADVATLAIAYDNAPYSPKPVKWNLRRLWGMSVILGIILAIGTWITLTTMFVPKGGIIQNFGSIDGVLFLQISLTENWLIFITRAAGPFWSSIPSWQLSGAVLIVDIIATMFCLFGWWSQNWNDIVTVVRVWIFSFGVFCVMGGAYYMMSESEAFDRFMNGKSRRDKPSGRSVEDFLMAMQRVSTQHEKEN
The description is as above. Type of series: binding.

Substrate in the series “purified protein”: Nc1ncnc2c1ncn2[C@@H]1O[C@H](COP(=O)(O)OP(=O)(O)OP(=O)(O)O)[C@@H](O)[C@H]1O
Put plainly: purified protein. The settings on record: 25 °C, cooperative. The series is classed as biochemical, Kluyveromyces lactis.

Series [3] concerns the molecule itself. Description: native gel or EMSA; BN-PAGE of SEC Peak 1 fractions (23-26); 4-15% gradient gel with 0.1 M trehalose; sample buffer 25 mM imidazole, 0.3 M trehalose, 0.25% DDM, 0.025% Coomassie blue, pH 7.0; 4 °C; silver stain.
Series [4] concerns the molecule itself. Description: native gel or EMSA; BN-PAGE of SEC Peak 2 fractions (33-37); 4-15% gradient gel with 0.1 M trehalose; sample buffer 25 mM imidazole, 0.3 M trehalose, 0.25% DDM, 0.025% Coomassie blue, pH 7.0; 4 °C; silver stain.

For the molecule `Nc1ncnc2c1ncn2[C@@H]1O[C@H](COP(=O)(O)OP(=O)(O)O)[C@@H](O)[C@H]1O` [ADP], the results for the Kd in series [1] and in series [2] were 136 ± 7.8 µM and 190 ± 13.9 µM, respectively.

`Nc1ncnc2c1ncn2[C@@H]1O[C@H](COP(=O)(O)OP(=O)(O)CP(=O)(O)O)[C@@H](O)[C@H]1O` [AMP-PCP]: the Kd (usually a measure of binding affinity in units of concentration) in series [1] was 73.3 ± 5.8 µM; in series [2], 106 ± 12.6 µM.

B1: plasma membrane H^+-ATPase hexamer, aggregated (large MAS, Peak 1) (Kluyveromyces lactis NRRL Y-1140) (protein)
chain: MSAATEPTKEKPVNNQDSDDEDEDIDQLIEDLQSHHGLDDESEDDEHVAAGSARPVPEELLQTDPSYGLTSDEVTKRRKKYGLNQMSEETENLFVKFLMFFIGPIQFVMEAAAILAAGLEDWVDFGVICGLLFLNAAVGFIQEYQAGSIVDELKKTLANSAVVIRDGNLVEVPSNEVVPGDILQLEDGVVIPADGRLVTEDCFIQIDQSAITGESLAVDKRFGDSTFSSSTVKRGEAFMIVTATGDSTFVGRAAALVNKAAAGSGHFTEVLNGIGTILLILVIVTLLLVWVASFYRTNKIVRILRYTLAITIVGVPVGLPAVVTTTMAVGAAYLAKKQAIVQKLSAIESLAGVEILCSDKTGTLTKNKLSLHEPYTVEGVDPDDLMLTACLAASRKKKGLDAIDKAFLKSLISYPRAKAALTKYKLLEFHPFDPVSKKVTAIVESPEGERIICVKGAPLFVLKTVEEEHPIPEDVRENYENKVAELASRGFRALGVARKRGEGHWEILGVMPCMDPPRDDTAQTVNEARHLGLRVKMLTGDAVGIAKETCRQLGLGTNIYNAERLGLGGGGDMPGSELADFVENADGFAEVFPQHKYNVVEILQQRGYLVAMTGDGVNDAPSLKKADTGIAVEGATDAARSAADIVFLAPGLSAIIDALKTSRQIFHRMYSYVVYRIALSLHLEIFLGLWIAILNRSLNIDLVVFIAIFADVATLAIAYDNAPYSPKPVKWNLRRLWGMSVILGIILAIGTWITLTTMFVPKGGIIQNFGSIDGVLFLQISLTENWLIFITRAAGPFWSSIPSWQLSGAVLIVDIIATMFCLFGWWSQNWNDIVTVVRVWIFSFGVFCVMGGAYYMMSESEAFDRFMNGKSRRDKPSGRSVEDFLMAMQRVSTQHEKEN
notes: Superose 6 Peak 1, aggregated hexamers; monomer ~100 kDa; no tag
With B1, the K0.5 in “purified protein” (Hill n = 1.98 ± 0.21) was determined as 329 ± 19 µM.

B2: plasma membrane H^+-ATPase from Kluyveromyces lactis (enzyme, UniProt P49380 1-899, looked up)
chain: MSAATEPTKEKPVNNQDSDDEDEDIDQLIEDLQSHHGLDDESEDDEHVAAGSARPVPEELLQTDPSYGLTSDEVTKRRKKYGLNQMSEETENLFVKFLMFFIGPIQFVMEAAAILAAGLEDWVDFGVICGLLFLNAAVGFIQEYQAGSIVDELKKTLANSAVVIRDGNLVEVPSNEVVPGDILQLEDGVVIPADGRLVTEDCFIQIDQSAITGESLAVDKRFGDSTFSSSTVKRGEAFMIVTATGDSTFVGRAAALVNKAAAGSGHFTEVLNGIGTILLILVIVTLLLVWVASFYRTNKIVRILRYTLAITIVGVPVGLPAVVTTTMAVGAAYLAKKQAIVQKLSAIESLAGVEILCSDKTGTLTKNKLSLHEPYTVEGVDPDDLMLTACLAASRKKKGLDAIDKAFLKSLISYPRAKAALTKYKLLEFHPFDPVSKKVTAIVESPEGERIICVKGAPLFVLKTVEEEHPIPEDVRENYENKVAELASRGFRALGVARKRGEGHWEILGVMPCMDPPRDDTAQTVNEARHLGLRVKMLTGDAVGIAKETCRQLGLGTNIYNAERLGLGGGGDMPGSELADFVENADGFAEVFPQHKYNVVEILQQRGYLVAMTGDGVNDAPSLKKADTGIAVEGATDAARSAADIVFLAPGLSAIIDALKTSRQIFHRMYSYVVYRIALSLHLEIFLGLWIAILNRSLNIDLVVFIAIFADVATLAIAYDNAPYSPKPVKWNLRRLWGMSVILGIILAIGTWITLTTMFVPKGGIIQNFGSIDGVLFLQISLTENWLIFITRAAGPFWSSIPSWQLSGAVLIVDIIATMFCLFGWWSQNWNDIVTVVRVWIFSFGVFCVMGGAYYMMSESEAFDRFMNGKSRRDKPSGRSVEDFLMAMQRVSTQHEKEN
notes: plasma membrane H^+-ATPase (Pma1) of Kluyveromyces lactis, endogenous enzyme; monomer band of ~100 kDa on SDS-PAGE; also called Pma1; H^+-ATPase hexamer; source: also in isolated plasma membranes treated with DDM
Consider B2, for which the stoichiometry N (as a rule, the number of molecules, sites or subunits per partner or assembly) is 6 in series [3]; 2 and 4 in series [4].

B3: plasma membrane H^+-ATPase hexamer, free (small MAS, Peak 2) (Kluyveromyces lactis NRRL Y-1140) (protein)
chain: MSAATEPTKEKPVNNQDSDDEDEDIDQLIEDLQSHHGLDDESEDDEHVAAGSARPVPEELLQTDPSYGLTSDEVTKRRKKYGLNQMSEETENLFVKFLMFFIGPIQFVMEAAAILAAGLEDWVDFGVICGLLFLNAAVGFIQEYQAGSIVDELKKTLANSAVVIRDGNLVEVPSNEVVPGDILQLEDGVVIPADGRLVTEDCFIQIDQSAITGESLAVDKRFGDSTFSSSTVKRGEAFMIVTATGDSTFVGRAAALVNKAAAGSGHFTEVLNGIGTILLILVIVTLLLVWVASFYRTNKIVRILRYTLAITIVGVPVGLPAVVTTTMAVGAAYLAKKQAIVQKLSAIESLAGVEILCSDKTGTLTKNKLSLHEPYTVEGVDPDDLMLTACLAASRKKKGLDAIDKAFLKSLISYPRAKAALTKYKLLEFHPFDPVSKKVTAIVESPEGERIICVKGAPLFVLKTVEEEHPIPEDVRENYENKVAELASRGFRALGVARKRGEGHWEILGVMPCMDPPRDDTAQTVNEARHLGLRVKMLTGDAVGIAKETCRQLGLGTNIYNAERLGLGGGGDMPGSELADFVENADGFAEVFPQHKYNVVEILQQRGYLVAMTGDGVNDAPSLKKADTGIAVEGATDAARSAADIVFLAPGLSAIIDALKTSRQIFHRMYSYVVYRIALSLHLEIFLGLWIAILNRSLNIDLVVFIAIFADVATLAIAYDNAPYSPKPVKWNLRRLWGMSVILGIILAIGTWITLTTMFVPKGGIIQNFGSIDGVLFLQISLTENWLIFITRAAGPFWSSIPSWQLSGAVLIVDIIATMFCLFGWWSQNWNDIVTVVRVWIFSFGVFCVMGGAYYMMSESEAFDRFMNGKSRRDKPSGRSVEDFLMAMQRVSTQHEKEN
notes: Superose 6 Peak 2, mainly free hexamers with minor monomer, dimer, tetramer; monomer ~100 kDa; no tag
For B3, in “purified protein” (Hill n = 1.82 ± 0.22), the K0.5 was 364 ± 28 µM.

The record behind these values is PMC6429222, “The Oligomeric State of the Plasma Membrane H^+-ATPase from Kluyveromyces lactis” (Molecules, 2019).
